In patent publication US20250136578A1 (Kolm Therapeutics Inc., priority 2023, published 2025):

Experiments:
VCaP cells = assay: VCaP growth inhibition assay (CTG); assay type: cell-based; settings: Homo sapiens, 216 h, 30 pM R1881, 9 days
Outline: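 VCaP cells in phenol red-free DMEM with 5% charcoal-stripped serum were stimulated with 30 pM R1881 (final) and treated with compound from 100 nM to 10 fM final (1:5 dilutions) for 9 days at 37 °C. Viability was read by CellTiter-Glo luminescence, and IC50 came from 4-parameter logistic fits.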

AR / CBP ternary complex = AR / CBP ternary complex (Homo sapiens, UniProt P10275+Q92793); assay: Ternary complex formation assay (sandwich ELISA, AR capture, CBP antibody detection) in VCaP cell lysates; assay type: cell-based; settings: treated 1.5 hours, rabbit CBP or p300 antibody detection, average, read-out: Average Ternary Complex
Sequence of AR / CBP ternary complex (P10275 whole entry): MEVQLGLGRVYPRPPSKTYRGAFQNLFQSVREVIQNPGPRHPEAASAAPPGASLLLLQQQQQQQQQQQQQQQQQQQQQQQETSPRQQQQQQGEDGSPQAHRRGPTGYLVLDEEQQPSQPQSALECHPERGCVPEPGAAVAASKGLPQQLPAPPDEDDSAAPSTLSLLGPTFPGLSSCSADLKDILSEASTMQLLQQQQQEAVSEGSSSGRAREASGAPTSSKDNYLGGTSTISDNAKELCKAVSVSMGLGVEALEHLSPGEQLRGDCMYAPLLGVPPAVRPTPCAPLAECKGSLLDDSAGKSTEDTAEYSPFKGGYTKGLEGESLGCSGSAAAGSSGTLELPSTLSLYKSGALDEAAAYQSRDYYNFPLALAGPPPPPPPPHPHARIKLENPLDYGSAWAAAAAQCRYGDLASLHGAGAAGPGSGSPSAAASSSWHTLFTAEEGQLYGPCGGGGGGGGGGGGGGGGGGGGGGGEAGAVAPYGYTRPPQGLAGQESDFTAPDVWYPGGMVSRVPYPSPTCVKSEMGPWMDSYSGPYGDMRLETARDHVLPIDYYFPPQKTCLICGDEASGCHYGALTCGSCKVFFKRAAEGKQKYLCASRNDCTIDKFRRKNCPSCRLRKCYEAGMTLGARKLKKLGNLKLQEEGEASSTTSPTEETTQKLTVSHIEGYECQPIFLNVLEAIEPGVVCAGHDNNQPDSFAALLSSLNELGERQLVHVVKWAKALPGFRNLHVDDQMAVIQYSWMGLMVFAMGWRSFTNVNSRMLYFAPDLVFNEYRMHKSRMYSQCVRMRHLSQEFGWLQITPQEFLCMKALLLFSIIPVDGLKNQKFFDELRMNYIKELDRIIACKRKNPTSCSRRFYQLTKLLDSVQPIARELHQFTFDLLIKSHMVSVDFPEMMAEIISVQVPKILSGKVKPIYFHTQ
Sequence of AR / CBP ternary complex (Q92793 2-2442): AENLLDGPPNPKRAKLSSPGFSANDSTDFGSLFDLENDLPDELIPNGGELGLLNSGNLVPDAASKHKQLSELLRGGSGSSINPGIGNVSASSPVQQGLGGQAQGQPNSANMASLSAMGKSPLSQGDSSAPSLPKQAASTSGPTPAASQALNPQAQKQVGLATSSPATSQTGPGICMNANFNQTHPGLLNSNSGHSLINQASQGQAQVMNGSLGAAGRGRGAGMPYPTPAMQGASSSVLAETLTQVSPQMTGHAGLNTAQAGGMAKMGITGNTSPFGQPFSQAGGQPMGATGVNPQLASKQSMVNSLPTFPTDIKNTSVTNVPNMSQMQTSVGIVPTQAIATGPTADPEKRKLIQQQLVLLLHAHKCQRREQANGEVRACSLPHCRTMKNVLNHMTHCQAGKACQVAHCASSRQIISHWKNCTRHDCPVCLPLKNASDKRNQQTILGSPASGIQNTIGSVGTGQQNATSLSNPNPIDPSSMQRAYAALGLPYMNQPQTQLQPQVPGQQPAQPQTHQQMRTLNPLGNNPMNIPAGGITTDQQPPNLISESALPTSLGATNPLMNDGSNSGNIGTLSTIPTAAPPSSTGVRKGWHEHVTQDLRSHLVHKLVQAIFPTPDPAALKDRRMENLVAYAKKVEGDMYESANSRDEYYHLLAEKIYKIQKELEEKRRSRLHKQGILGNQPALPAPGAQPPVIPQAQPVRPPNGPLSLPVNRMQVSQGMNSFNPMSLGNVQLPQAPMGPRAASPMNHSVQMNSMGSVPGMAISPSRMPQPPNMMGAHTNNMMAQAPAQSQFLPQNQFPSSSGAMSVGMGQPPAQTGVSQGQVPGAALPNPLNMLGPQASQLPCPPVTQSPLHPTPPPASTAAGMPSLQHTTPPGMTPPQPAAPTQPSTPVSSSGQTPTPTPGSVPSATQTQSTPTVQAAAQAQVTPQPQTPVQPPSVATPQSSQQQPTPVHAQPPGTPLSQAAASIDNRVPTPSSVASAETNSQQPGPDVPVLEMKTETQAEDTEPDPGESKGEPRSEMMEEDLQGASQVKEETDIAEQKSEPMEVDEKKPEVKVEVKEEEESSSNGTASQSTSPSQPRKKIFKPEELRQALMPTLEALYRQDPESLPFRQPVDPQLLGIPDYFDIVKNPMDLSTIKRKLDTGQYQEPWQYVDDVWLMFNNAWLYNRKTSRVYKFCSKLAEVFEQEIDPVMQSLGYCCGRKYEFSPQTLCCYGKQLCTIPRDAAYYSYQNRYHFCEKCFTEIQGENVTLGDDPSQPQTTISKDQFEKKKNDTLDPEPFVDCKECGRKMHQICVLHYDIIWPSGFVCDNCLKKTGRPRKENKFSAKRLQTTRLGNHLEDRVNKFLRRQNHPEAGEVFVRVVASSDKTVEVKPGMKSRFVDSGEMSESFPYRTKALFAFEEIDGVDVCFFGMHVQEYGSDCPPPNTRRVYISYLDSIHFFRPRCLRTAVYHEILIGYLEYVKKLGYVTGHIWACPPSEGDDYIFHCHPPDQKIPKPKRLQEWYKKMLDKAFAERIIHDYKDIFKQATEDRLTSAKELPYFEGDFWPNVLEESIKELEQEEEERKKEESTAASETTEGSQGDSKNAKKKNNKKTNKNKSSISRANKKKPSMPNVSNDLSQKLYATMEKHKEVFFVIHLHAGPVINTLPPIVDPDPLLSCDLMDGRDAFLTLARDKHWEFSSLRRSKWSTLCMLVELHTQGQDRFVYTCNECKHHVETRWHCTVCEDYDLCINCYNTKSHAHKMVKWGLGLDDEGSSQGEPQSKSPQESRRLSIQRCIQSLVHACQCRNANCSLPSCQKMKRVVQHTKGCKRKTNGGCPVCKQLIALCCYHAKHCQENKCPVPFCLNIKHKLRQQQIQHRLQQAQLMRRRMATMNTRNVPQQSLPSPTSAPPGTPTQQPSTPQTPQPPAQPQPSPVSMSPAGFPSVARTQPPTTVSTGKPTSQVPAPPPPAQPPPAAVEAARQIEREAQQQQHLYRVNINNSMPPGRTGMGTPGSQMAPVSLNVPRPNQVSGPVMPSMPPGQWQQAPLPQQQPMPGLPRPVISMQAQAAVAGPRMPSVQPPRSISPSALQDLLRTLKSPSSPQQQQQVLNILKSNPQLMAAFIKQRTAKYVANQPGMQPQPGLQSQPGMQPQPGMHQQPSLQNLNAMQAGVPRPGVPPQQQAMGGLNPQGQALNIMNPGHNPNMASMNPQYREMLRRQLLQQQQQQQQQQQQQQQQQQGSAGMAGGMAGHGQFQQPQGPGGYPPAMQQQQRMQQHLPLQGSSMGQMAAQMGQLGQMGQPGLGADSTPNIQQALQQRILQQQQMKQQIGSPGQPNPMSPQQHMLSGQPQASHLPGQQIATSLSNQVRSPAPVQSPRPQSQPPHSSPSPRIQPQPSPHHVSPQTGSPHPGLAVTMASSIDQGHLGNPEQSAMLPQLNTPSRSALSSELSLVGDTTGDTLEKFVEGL
Outline: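 VCaP cells in 5% charcoal-stripped FBS were cultured ≥3 days and then given bifunctional compound for 1.5 h. Lysates went onto AR-antibody-coated plates. Bound CBP (or p300) was detected with a rabbit antibody plus HRP anti-rabbit, using QuantaRed chemifluorescence (ex 570/em 585) read immediately, at 5 min and at 15 min.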

Row | IC50 (VCaP cells) | EC50 (AR / CBP ternary complex) | Compound
1 | ≤ 0.1 nM | < 1 nM | CC(=O)N1CCc2c(c(-c3cccc4cc(-c5cnn(C)c5)ncc34)nn2C2CCN(CC3CCN(c4ccc(C(=O)N[C@H]5CC[C@H](Oc6ccc(C#N)c(Cl)c6)CC5)nn4)CC3)CC2)C1 [Compound 32, 6-[4-[[4-[5-acetyl-3-[3-(1-methylpyrazol-4-yl)-8-isoquinolyl]-6,7-dihydro-4H-pyrazolo[4,3-c]pyridin-1-yl]-1-piperidyl]methyl]-1-piperidyl]-N-[4-(3-chloro-4-cyano-phenoxy)cyclohexyl]pyridazine-3-carboxamide]
2 | 0.1 to 1 nM | < 1 nM | Cn1cc(-c2cc3c(cc2C(F)F)N(c2cc(C4CCN(CC5CCN(c6ccc(C(=O)N[C@H]7CC[C@H](Oc8ccc(C#N)c(Cl)c8)CC7)nn6)CC5)CC4)c4c(c2)n(C)c(=O)n4C)CCC3)cn1 [Compound 33, N-[4-(3-chloro-4-cyano-phenoxy)cyclohexyl]-6-[4-[[4-[6-[7-(difluoromethyl)-6-(1-methylpyrazol-4-yl)-3,4-dihydro-2H-quinolin-1-yl]-1,3-dimethyl-2-oxo-benzimidazol-4-yl]-1-piperidyl]methyl]-1-piperidyl]pyridazine-3-carboxamide]
3 | 0.1 to 1 nM | 1 to 10 nM | C[C@@H]1CC(=O)Nc2cccc(N3CCCc4cc(-c5cnn(CC6CCN(c7ccc(C(=O)N[C@H]8CC[C@H](Oc9ccc(C#N)c(Cl)c9)CC8)nn7)CC6)c5)c(C(F)F)cc43)c2N1 [Compound 34, N-[4-(3-chloro-4-cyano-phenoxy)cyclohexyl]-6-[4-[[4-[7-(difluoromethyl)-1-[(4R)-4-methyl-2-oxo1,3,4,5-tetrahydro-1,5-benzodiazepin-6-yl]-3,4-dihydro-2H-quinolin-6-yl]pyrazol-1-yl]methyl]-1-piperidyl]pyridazine-3-carboxamide]
4 | 0.1 to 1 nM | > 100 nM | Cc1cc2c(N3CCN(C)c4cc(-c5cnn(C)c5)c(C#N)cc43)cc(OC3CCN(c4ccc(C(=O)N[C@H]5CC[C@H](Oc6ccc(C#N)c(Cl)c6)CC5)nn4)CC3)cc2n(C)c1=O [Compound 35, N-[4-(3-chloro-4-cyano-phenoxy)cyclohexyl]-6-[4-[[5-[7-cyano-4-methyl-6-(1-methylpyrazol-4-yl)-2,3-dihydroquinoxalin-1-yl]-1,3-dimethyl-2-oxo-7-quinolyl]oxy]-1-piperidyl]pyridazine-3-carboxamide]
5 | 1 to 100 nM | 10 to 100 nM | C[C@@H]1CC(=O)Nc2cccc(N3CCCc4cc(-c5cnn(CCC6CCN(c7ccc(C(=O)N[C@H]8CC[C@H](Oc9ccc(C#N)c(Cl)c9)CC8)nn7)CC6)c5)c(C(F)F)cc43)c2N1 [Compound 36, N-[4-(3-chloro-4-cyano-phenoxy)cyclohexyl]-6-[4-[2-[4-[7-(difluoromethyl)-1-[(4R)-4-methyl-2-oxo-1,3,4,5-tetrahydro-1,5-benzodiazepin-6-yl]-3,4-dihydro-2H-quinolin-6-yl]pyrazol-1-yl]ethyl]-1-piperidyl]pyridazine-3-carboxamide]
6 | 0.1 to 1 nM | > 100 nM | Cc1cc2c(N3CCN(C)c4cc(-c5cnn(C)c5)c(C#N)cc43)cc(OCC3CCN(c4ccc(C(=O)N[C@H]5CC[C@H](Oc6ccc(C#N)c(Cl)c6)CC5)nn4)CC3)cc2n(C)c1=O [Compound 37, N-[4-(3-chloro-4-cyano-phenoxy)cyclohexyl]-6-[4-[[5-[7-cyano-4-methyl-6-(1-methylpyrazol-4-yl)-2,3-dihydroquinoxalin-1-yl]-1,3-dimethyl-2-oxo-7-quinolyl]oxymethyl]-1-piperidyl]pyridazine-3-carboxamide]
7 | 0.1 to 1 nM | > 100 nM | Cc1cc2c(N3CCN(C)c4cc(-c5cnn(C)c5)c(C#N)cc43)cc(OCCC3CCN(c4ccc(C(=O)N[C@H]5CC[C@H](Oc6ccc(C#N)c(Cl)c6)CC5)nn4)CC3)cc2n(C)c1=O [Compound 38, N-[4-(3-chloro-4-cyano-phenoxy)cyclohexyl]-6-[4-[2-[[5-[7-cyano-4-methyl-6-(1-methylpyrazol-4-yl)-2,3-dihydroquinoxalin-1-yl]-1,3-dimethyl-2-oxo-7-quinolyl]oxy]ethyl]-1-piperidyl]pyridazine-3-carboxamide]
8 | ≤ 0.1 nM | < 1 nM | Cc1cc2c(N3CCN(C)c4cc(-c5cnn(C)c5)c(C#N)cc43)cc(OCCOC3CCN(c4ccc(C(=O)N[C@H]5CC[C@H](Oc6ccc(C#N)c(Cl)c6)CC5)nn4)CC3)cc2n(C)c1=O [Compound 39, N-[4-(3-chloro-4-cyano-phenoxy)cyclohexyl]-6-[4-[2-[[5-[7-cyano-4-methyl-6-(1-methylpyrazol-4-yl)-2,3-dihydroquinoxalin-1-yl]-1,3-dimethyl-2-oxo-7-quinolyl]oxy]ethoxy]-1-piperidyl]pyridazine-3-carboxamide]
9 | 0.1 to 1 nM | 1 to 10 nM | CC(=O)N1CCc2c(c(N3CCCc4cc(-c5cnn(C)c5)c(C(F)F)cc43)nn2C2CC3(C2)CN(C(=O)C2CC4(C2)CN(c2ccc(C(=O)N[C@H]5CC[C@H](Oc6ccc(C#N)c(Cl)c6)CC5)nn2)C4)C3)C1 (stereo partly drawn) [Compound 40, 6-[6-[6-[5-acetyl-3-[7-(difluorodimethyl)-6-(1-methylpyrazol-4-yl)-3,4-dihydro-2H-quinolin-1-yl]-6,7-dihydro-4H-pyrazolo[4,3-c]pyridin-1-yl]-2-azaspiro[3.3]heptane-2-carbonyl]-2-azaspiro[3.3]heptan-2-yl]-N-[4-(3-chloro-4-cyano-phenoxy)cyclohexyl]pyridazine-3-carboxamide]
10 | ≤ 0.1 nM | < 1 nM | CC(=O)N1CCc2c(c(N3CCCc4cc(-c5cnn(C)c5)c(C(F)F)cc43)nn2C2CC3(C2)CN(CC2CC4(C2)CN(c2ccc(C(=O)N[C@H]5CC[C@H](Oc6ccc(C#N)c(Cl)c6)CC5)nn2)C4)C3)C1 (stereo partly drawn) [Compound 41, 6-[6-[[6-[5-acetyl-3-[7-(difluoromethyl)-6-(1-methylpyrazol-4-yl)-3,4-dihydro-2H-quinolin-1-yl]-6,7-dihydro-4H-pyrazolo[4,3-c]pyridin-1-yl]-2-azaspiro [3.3]heptan-2-yl]methyl]-2-azaspiro [3.3]heptan-2-yl]-N-[4-(3-chloro-4-cyano-phenoxy)cyclohexyl] pyridazine-3-carboxamide]
11 | 0.1 to 1 nM | 1 to 10 nM | CC(=O)N1CCc2c(c(N3CCCc4ccc(C(F)F)cc43)nn2C2CC3(C2)CN(C(=O)C2CC4(C2)CN(c2ccc(C(=O)N[C@H]5CC[C@H](Oc6ccc(C#N)c(Cl)c6)CC5)nn2)C4)C3)C1 (stereo partly drawn) [Compound 42, 6-[6-[6-[5-acetyl-3-[7-(difluoromethyl)-3,4-dihydro-2H-quinolin-1-yl]-6,7-dihydro-4H-pyrazolo[4,3-c]pyridin-1-yl]-2-azaspiro[3.3]heptane-2-carbonyl]-2-azaspiro[3.3]heptan-2-yl]-N-[4-(3-chloro-4-cyano-phenoxy)cyclohexyl]pyridazine-3-carboxamide]
12 | 0.1 to 1 nM | 1 to 10 nM | CC(=O)N1CCc2c(c(N3CCCc4ccc(C(F)F)cc43)nn2C2CC3(C2)CN(CC2CC4(C2)CN(c2ccc(C(=O)N[C@H]5CC[C@H](Oc6ccc(C#N)c(Cl)c6)CC5)nn2)C4)C3)C1 (stereo partly drawn) [Compound 43, -[6-[[6-[5-acetyl-3-[7-(difluoromethyl)-3,4-dihydro-2H-quinolin-1-yl]-6,7-dihydro-4H-pyrazolo[4,3-c]pyridin-1-yl]-2-azaspiro [3.3]heptan-2-yl]methyl]-2-azaspiro [3.3]heptan-2-yl]-N-[4-(3-chloro-4-cyano-phenoxy)cyclohexyl] pyridazine-3-carboxamide]
13 | 0.1 to 1 nM | < 1 nM | CC(=O)N1CCc2c(c(N3CCCc4cc(C#N)ccc43)nn2C2CC3(C2)CN(C(=O)C2CC4(C2)CN(c2ccc(C(=O)N[C@H]5CC[C@H](Oc6ccc(C#N)c(Cl)c6)CC5)nn2)C4)C3)C1 (stereo partly drawn) [Compound 44, 6-[6-[6-[5-acetyl-3-(6-cyano-3,4-dihydro-2H-quinolin-1-yl)-6,7-dihydro-4H-pyrazolo[4,3-c]pyridin-1-yl]-2-azaspiro [3.3]heptane-2-carbonyl]-2-azaspiro[3.3]heptan-2-yl]-N-[4-(3-chloro-4-cyano-phenoxy)cyclohexyl] pyridazine-3-carboxamide]
14 | 0.1 to 1 nM | < 1 nM | CC(=O)N1CCc2c(c(N3CCCc4cc(C#N)ccc43)nn2C2CC3(C2)CN(CC2CC4(C2)CN(c2ccc(C(=O)N[C@H]5CC[C@H](Oc6ccc(C#N)c(Cl)c6)CC5)nn2)C4)C3)C1 (stereo partly drawn) [Compound 45, 6-[6-[[6-[5-acetyl-3-(6-cyano-3,4-dihydro-2H-quinolin-1-yl)-6,7-dihydro-4H-pyrazolo[4,3-c]pyridin-1-yl]-2-azaspiro [3.3]heptan-2-yl]methyl]-2-azaspiro[3.3]heptan-2-yl]-N-[4-(3-chloro-4-cyano-phenoxy)cyclohexyl] pyridazine-3-carboxamide]
15 | 0.1 to 1 nM | < 1 nM | CC(=O)N1CCc2c(c(-c3cccc4cc(-c5cnn(CC6CC7(C6)CN(c6ccc(C(=O)N[C@H]8CC[C@H](Oc9ccc(C#N)c(Cl)c9)CC8)nn6)C7)c5)ncc34)nn2C2CCOCC2)C1 [Compound 46, 6-[6-[[4-[8-(5-acetyl-1-tetrahydropyran-4-yl-6,7-dihydro-4H-pyrazolo[4,3-c]pyridin-3-yl)-3-isoquinolyl]pyrazol-1-yl]methyl]-2-azaspiro[3.3]heptan-2-yl]-N-[4-(3-chloro-4-cyano-phenoxy)cyclohexyl]pyridazine-3-carboxamide]
